Patent US20090291442A1, “HSPA1A AS A MARKER FOR SENSITIVITY TO KSP INHIBITORS” (SMITHKLINE BEECHAM CORPORATION, priority 2006, published 2009)
Structures can show the parent of a compound that is named as a salt.

Assays:
[1] = tested on: Wilm's tumor WT7 xenograft; experiment: Outcome of human Wilm's tumor xenograft WT7 to KSP inhibitor; type: in vivo; conditions: Wilm's tumor xenograft WT7, known outcome
Procedure: (§1) Affymetrix® gene expression profiling was conducted to identify baseline expression patterns associated with sensitivity to the KSP inhibitor in human Wilm's tumor xenograft models. Total RNA from three distinct Wilm's tumors with known outcomes to Ispinesib mesylate (2-3 replicates) inhibition was labeled using a 5 μg protocol and hybridized to the HG-U133A Affymetrix® array. Baseline gene expression differences between tumors resistant (WT7 and WT8) and sensitive (WT10) to Ispinesib mesylate were compared. […] Validation by QPCR of the same tumors confirmed this expression pattern.

[2] = tested on: Wilm's tumor WT8 xenograft; experiment: Outcome of human Wilm's tumor xenograft WT8 to KSP inhibitor; type: in vivo; conditions: Wilm's tumor xenograft WT8, known outcome
Procedure: as §1

[3] = tested on: Wilm's tumor WT10 xenograft; experiment: Outcome of human Wilm's tumor xenograft WT10 to KSP inhibitor; type: in vivo; conditions: Wilm's tumor xenograft WT10, known outcome
Procedure: as §1

[4] = tested on: Colo201 (colon cancer); experiment: Cell line sensitivity to KSP inhibitor (FACS analysis); type: cell-based; conditions: Colo201 cells
From the text: (§2) Baseline expression of HSPA1a was validated in 4 cell lines: MX1 (breast cancer) and MV522 (lung cancer) resistant to Ispinesib mesylate and Colo201 (colon cancer) and Colo205 (colon cancer) sensitive to Ispinesib mesylate inhibition. Like the tumors, HSPA1a expression differentiated the resistant cell lines from the sensitive cell lines.
(§3) A more extensive list of preclinical cell lines compared with those presented in Example 2, including cell lines from both solid and liquid tumors, was analyzed. Again, these cell lines were previously determined to be either resistant or sensitive to Ispinesib mesylate using FACS analysis. […] Of the 22 cell lines analyzed, HSPA1a expression levels were correctly able to classify 19 cell lines as resistant or sensitive to the KSP inhibitor. The HSPA1a marker misclassified 2 cell lines Daudi and HCT116 as sensitive (due to low baseline expression in these cells) and HeLaS3 cell line as resistant (due to high baseline expression of HSPA1a in these cells).

[5] = tested on: Colo205 (colon cancer); experiment: as above; type: cell-based; conditions: Colo205 cells
From the text: as §2, §3

[6] = tested on: MV522 (lung cancer); experiment: as above; type: cell-based; conditions: MV522 cells
From the text: as §2, §3

[7] = tested on: MX1 (breast cancer); experiment: as above; type: cell-based; conditions: MX1 cells
From the text: as §2, §3

[8] = target: T1, KSP (Homo sapiens, UniProt P52732); conditions: literature statement; cited from earlier work
T1 sequence (P52732 1-1056): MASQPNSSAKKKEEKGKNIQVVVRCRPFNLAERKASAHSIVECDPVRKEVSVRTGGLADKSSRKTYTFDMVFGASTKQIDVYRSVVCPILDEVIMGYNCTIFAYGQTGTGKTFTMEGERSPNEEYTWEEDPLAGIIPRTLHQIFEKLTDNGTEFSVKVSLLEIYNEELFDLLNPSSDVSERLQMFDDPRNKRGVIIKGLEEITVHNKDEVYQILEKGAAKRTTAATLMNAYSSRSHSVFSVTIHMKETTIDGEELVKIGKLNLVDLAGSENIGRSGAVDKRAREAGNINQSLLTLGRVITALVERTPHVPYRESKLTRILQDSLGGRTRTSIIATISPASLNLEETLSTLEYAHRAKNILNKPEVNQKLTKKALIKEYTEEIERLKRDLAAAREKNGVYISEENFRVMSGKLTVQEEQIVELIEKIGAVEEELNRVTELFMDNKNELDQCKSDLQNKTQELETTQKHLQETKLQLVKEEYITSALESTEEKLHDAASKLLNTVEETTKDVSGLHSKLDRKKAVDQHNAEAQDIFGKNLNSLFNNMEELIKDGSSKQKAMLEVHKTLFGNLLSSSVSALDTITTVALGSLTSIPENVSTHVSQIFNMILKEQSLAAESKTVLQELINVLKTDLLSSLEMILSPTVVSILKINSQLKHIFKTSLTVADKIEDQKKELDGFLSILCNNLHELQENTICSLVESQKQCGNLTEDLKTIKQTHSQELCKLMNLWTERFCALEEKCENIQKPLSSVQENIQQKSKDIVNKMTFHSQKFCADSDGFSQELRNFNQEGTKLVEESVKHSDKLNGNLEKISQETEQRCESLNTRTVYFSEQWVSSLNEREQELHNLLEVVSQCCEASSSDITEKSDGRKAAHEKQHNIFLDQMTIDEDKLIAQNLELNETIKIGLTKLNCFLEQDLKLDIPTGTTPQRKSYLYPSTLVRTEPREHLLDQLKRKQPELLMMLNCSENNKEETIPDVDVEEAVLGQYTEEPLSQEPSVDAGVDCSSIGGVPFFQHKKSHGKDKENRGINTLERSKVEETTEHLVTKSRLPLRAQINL

Cc1ccc(C(=O)N(CCCN)[C@@H](c2nc3cc(Cl)ccc3c(=O)n2Cc2ccccc2)C(C)C)cc1 [Ispinesib mesylate]
tumor resistant or sensitive to the compound [1]: resistant
tumor resistant or sensitive to the compound [2]: resistant
tumor resistant or sensitive to the compound [3]: sensitive
cell line resistant or sensitive to the compound [4]: sensitive
cell line resistant or sensitive to the compound [5]: sensitive
cell line resistant or sensitive to the compound [6]: resistant
cell line resistant or sensitive to the compound [7]: resistant
inhibition of KSP (in words) [8]: potent and selective inhibitor of KSP
